Holding throughout (type): functional
In test [1] the test system is Candida albicans. Put plainly: 50% inhibitory activity against Candida albicans (40 clinical isolates) determined at pH-5.8.
The subject of test [2] is Candida. Put plainly: Resistance against all Candida. species (40 clinical isolates) at 256 micro g/mL (pH=5.8). Activity is expressed as R%.
The test system of test [3] is Candida. Briefly: Inhibitory activity against Candida. species. (40 clinical isolates), determined at pH-7.2.
Test [4] deals with Candida albicans. Briefly: Inhibitory activity against the Candida albicans (40 clinical isolates), determined at pH-7.2.
The test system of test [5] is Candida. Briefly: 50% inhibitory activity against the Candida. species (40 clinical isolates) was determined at pH-7.2.
The test system of test [6] is Candida albicans. Put plainly: Resistance against Candida. albicans (40 clinical isolates) at 256 ug/mL (pH=7.2), activity is expressed as R%.
The test system of test [7] is Candida albicans. Briefly: Inhibitory activity against Candida albicans (40 clinical isolates), determined at pH-5.8.
Test [8] deals with Candida albicans. Put plainly: 50% inhibitory activity against Candida albicans (40 clinical isolates) determined at pH-7.2. The following applies: Candida albicans; read-out: MIC50.
Test [9] relates to Candida. Briefly: Inhibitory activity against Candida. species (40 clinical isolates), determined at pH-5.8.
Test [10] concerns Candida. Briefly: Percent resistance against all Candida. species (40 clinical isolates) at 256 micro g/mL (pH=7.2), activity is expressed as R%.
Test [11] has as its system Candida albicans. Put plainly: Percent resistance against Candida albicans (40 clinical isolates) at 256 micro g/mL (pH=5.8), activity is expressed as R%.
In test [12] the test system is Candida albicans. Briefly: Inhibitory activity against the Candida albicans (40 clinical isolates), determined at pH-5.8.
In test [13] the test system is Candida. Briefly: 90% inhibitory activity against the Candida. species (40 clinical isolates) was determined at pH-7.2.
In test [14] the test system is Candida. Put plainly: Inhibitory activity against Candida. species. (40 clinical isolates), determined at pH-5.8.
The subject of test [15] is Candida albicans. Briefly: Inhibitory activity against Candida albicans (40 clinical isolates), determined at pH-7.2.
Test [16] deals with Candida. Put plainly: 90% inhibitory activity against Candida. species (40 clinical isolates) determined at pH-7.2.
Another test concerns Oryctolagus cuniculus. Put plainly: Topical comparison with bifonazole in white male rabbits at 1% concentration of compound.
The test system of test [17] is Candida albicans. Put plainly: The compound was tested for percent resistance against Candida. albicans (40 clinical isolates) at 256 micro g/mL (pH=7.2), activity is expressed as R%.

The text below walks through data of ChEMBL document CHEMBL1128323, “Antifungal agents. 9. 3-Aryl-4-[alpha-(1H-imidazol-1-yl)arylmethyl]pyrroles: a new class of potent anti-Candida agents” (1995).

What is called MIC50 is the lowest concentration that inhibits either 50% of growth or 50% of the strains tested, depending on the study. A word on the MIC: it is the lowest concentration found to suppress growth. A high value points to a need for much substance. Broadly, the MIC90 is an inhibitory concentration at the 90% level, which refers to growth in some studies and to a panel of isolates in others.

In brackets after ≈: the same amount, converted by molar mass. Several values for one entry are separate records, joined by “and”; a condition that tells them apart may be missing. Equal values may be shown once.

For the compound `Nc1ccc(C(c2c[nH]cc2-c2ccccc2)n2ccnc2)cc1` (stereo not given), the MIC50 against Candida albicans [1] was 128 µg/mL (≈ 407 µM); in the test on Candida [5] it was 256 µg/mL (≈ 814 µM); in the test with Candida albicans [8], 128 µg/mL (≈ 407 µM); in the test on Candida [9] it was 256 µg/mL (≈ 814 µM). Also, the R in the test with Candida [2] is on record as 80%; with Candida albicans [6], 0%; in the test with Candida [10] it was 80%; in the test on Candida albicans [11], 0%. Also, the MIC is > 331 µg/mL with Candida [3], 142 µg/mL (≈ 453 µM) with Candida albicans [7], > 327 µg/mL against Candida [14] and 162 µg/mL (≈ 515 µM) in the test on Candida albicans [15]. Besides, the MIC90 against Candida albicans [4] was 128 µg/mL (≈ 407 µM); in the test on Candida [9], > 256 µg/mL; in the test on Candida albicans [12] it was 256 µg/mL (≈ 814 µM); with Candida [13] it was > 256 µg/mL.
In the case of `Fc1ccc(C(c2c[nH]cc2-c2ccc(Cl)cc2Cl)n2ccnc2)cc1` (stereo not given), the MIC50 in the test on Candida albicans [1] is 2 µg/mL (≈ 5.18 µM); in the test with Candida [5], 16 µg/mL (≈ 41.4 µM); in the test on Candida albicans [8], 8 µg/mL (≈ 20.7 µM); against Candida [9] it was 16 µg/mL (≈ 41.4 µM). Further, the R in the test on Candida [2], with Candida albicans [6], with Candida [10] and in the test on Candida albicans [11] was 0% each time. Further, the MIC against Candida [3] turned out to be 20.9 µg/mL (≈ 54.1 µM); against Candida albicans [7] it was 7.8 µg/mL (≈ 20.2 µM); in the test on Candida [14], 21.5 µg/mL (≈ 55.7 µM); in the test on Candida albicans [15] it was 10.4 µg/mL (≈ 26.9 µM). For the same compound, the MIC90 with Candida albicans [4], against Candida [16], with Candida [9] and with Candida albicans [12] was 32 µg/mL (≈ 82.8 µM) throughout.
On to `Clc1ccc(C(c2c[nH]cc2-c2ccccc2)n2ccnc2)cc1` (stereo not given), for which the R with Candida [2], with Candida albicans [6], in the test on Candida [10] and in the test with Candida albicans [11] was 0% in each case. Moreover, the MIC is 40 µg/mL (≈ 120 µM) against Candida [3], 47.3 µg/mL (≈ 142 µM) in the test on Candida albicans [7], 51.4 µg/mL (≈ 154 µM) in the test with Candida [14] and 21.3 µg/mL (≈ 63.8 µM) with Candida albicans [15]. The MIC90 with Candida albicans [4] turned out to be 128 µg/mL (≈ 383 µM); against Candida [9], 64 µg/mL (≈ 192 µM); in the test on Candida albicans [12] it was 64 µg/mL (≈ 192 µM); against Candida [13] it was 128 µg/mL (≈ 383 µM). For the same compound, the MIC50 is 32 µg/mL (≈ 95.9 µM) in the test on Candida [5] and 64 µg/mL (≈ 192 µM) against Candida [9].
`Clc1ccc(C(c2c[nH]cc2-c2ccc(Cl)c(Cl)c2)n2ccnc2)cc1` (stereo not given): the MIC50 with Candida albicans [1] worked out at 4 µg/mL (≈ 9.93 µM); against Candida [5], 32 µg/mL (≈ 79.5 µM); with Candida albicans [8], 4 µg/mL (≈ 9.93 µM); in the test on Candida [9], 32 µg/mL (≈ 79.5 µM). Moreover, the R in the test with Candida [2], in the test on Candida albicans [6], with Candida [10] and in the test with Candida albicans [11] was 0% each time. Also, the MIC against Candida [3] turned out to be 39.2 µg/mL (≈ 97.3 µM); in the test on Candida albicans [7] it was 8.9 µg/mL (≈ 22.1 µM); with Candida [14], 30.2 µg/mL (≈ 75 µM); in the test with Candida albicans [15], 9.6 µg/mL (≈ 23.8 µM). Also, the MIC90 against Candida albicans [4] turned out to be 16 µg/mL (≈ 39.7 µM); in the test with Candida [16], 64 µg/mL (≈ 159 µM); in the test with Candida [9], 64 µg/mL (≈ 159 µM); in the test with Candida albicans [12] it was 16 µg/mL (≈ 39.7 µM).
Turning to `c1ccc(-c2ccc(C(c3ccccc3)n3ccnc3)cc2)cc1` (stereo not given) [BIFONAZOLE], the MIC50 in the test on Candida albicans [1] amounted to 4 µg/mL (≈ 12.9 µM); in the test with Candida [5], 4 µg/mL (≈ 12.9 µM); in the test on Candida albicans [8], 4 µg/mL (≈ 12.9 µM); against Candida [9] it was 8 µg/mL (≈ 25.8 µM). Moreover, the R with Candida [2], with Candida albicans [17], with Candida [10] and in the test on Candida albicans [11] was 0% in each case. The MIC with Candida [3] was 4.5 µg/mL (≈ 14.5 µM); in the test on Candida albicans [7] it was 3.72 µg/mL (≈ 12 µM); against Candida [14], 7.5 µg/mL (≈ 24.2 µM); with Candida albicans [15] it was 4.1 µg/mL (≈ 13.2 µM). Further, the Percentage of animals with Oryctolagus cuniculus is 3% and 6% and 10%. Further, the MIC90 stood at 16 µg/mL (≈ 51.5 µM) with Candida albicans [4], 8 µg/mL (≈ 25.8 µM) against Candida [9], 16 µg/mL (≈ 51.5 µM) with Candida albicans [12] and 16 µg/mL (≈ 51.5 µM) with Candida [13].
As for `Clc1ccc(COC(Cn2ccnc2)c2ccc(Cl)cc2Cl)c(Cl)c1` (stereo not given) [MICONAZOLE], the MIC50 came out at 0.5 µg/mL (≈ 1.2 µM) in the test with Candida albicans [1], 16 µg/mL (≈ 38.4 µM) in the test with Candida [5], 2 µg/mL (≈ 4.81 µM) with Candida albicans [8] and 2 µg/mL (≈ 4.81 µM) against Candida [9]. The R in the test with Candida [2], with Candida albicans [6], in the test with Candida [10] and in the test with Candida albicans [11] was 0% in each case. The minimal inhibitory concentration (MIC) worked out at 13 µg/mL (≈ 31.2 µM) in the test on Candida [3], 5.9 µg/mL (≈ 14.2 µM) in the test on Candida albicans [7], 13 µg/mL (≈ 31.2 µM) against Candida [14] and 6.1 µg/mL (≈ 14.7 µM) in the test with Candida albicans [15]. For the same compound, the MIC90 in the test with Candida albicans [4], with Candida [16], against Candida [9] and against Candida albicans [12] was 32 µg/mL (≈ 76.9 µM) each time.
